Measured values reported in ChEMBL document CHEMBL1255189, “Structural basis for binding of cyclic 2-oxoglutarate analogues to factor-inhibiting hypoxia-inducible factor” (Bioorg Med Chem Lett, 2010).
Calls of active or inactive are those of the source. The rule behind the calls is not given here.

Experiments:
Prolyl hydroxylase EGLN2 = Prolyl hydroxylase EGLN2 (Homo sapiens, UniProt Q96KS0); experiment: Inhibition of PHD1 by HTRF assay
[1] = target: Egl nine homolog 1 (Homo sapiens) (UniProt Q9GZT9); experiment: Inhibition of PHD2 at 1 mM by HTRF assay
Sequence of Egl nine homolog 1 (Homo sapiens) (Q9GZT9 2-426 limits assumed): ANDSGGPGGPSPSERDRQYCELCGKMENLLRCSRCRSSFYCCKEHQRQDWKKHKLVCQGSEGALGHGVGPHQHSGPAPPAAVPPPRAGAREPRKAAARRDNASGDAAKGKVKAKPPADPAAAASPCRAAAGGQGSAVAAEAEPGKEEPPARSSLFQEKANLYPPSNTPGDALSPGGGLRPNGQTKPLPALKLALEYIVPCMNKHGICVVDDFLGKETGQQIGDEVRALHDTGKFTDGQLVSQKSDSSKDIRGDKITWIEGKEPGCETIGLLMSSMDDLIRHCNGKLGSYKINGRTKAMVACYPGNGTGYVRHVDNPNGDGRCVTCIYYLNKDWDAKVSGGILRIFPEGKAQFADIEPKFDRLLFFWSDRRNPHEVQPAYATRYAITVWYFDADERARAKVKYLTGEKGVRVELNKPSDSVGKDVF

[2] = Inhibition of FIH by HTRF assay

Sequence of Prolyl hydroxylase EGLN2 (Q96KS0 whole entry): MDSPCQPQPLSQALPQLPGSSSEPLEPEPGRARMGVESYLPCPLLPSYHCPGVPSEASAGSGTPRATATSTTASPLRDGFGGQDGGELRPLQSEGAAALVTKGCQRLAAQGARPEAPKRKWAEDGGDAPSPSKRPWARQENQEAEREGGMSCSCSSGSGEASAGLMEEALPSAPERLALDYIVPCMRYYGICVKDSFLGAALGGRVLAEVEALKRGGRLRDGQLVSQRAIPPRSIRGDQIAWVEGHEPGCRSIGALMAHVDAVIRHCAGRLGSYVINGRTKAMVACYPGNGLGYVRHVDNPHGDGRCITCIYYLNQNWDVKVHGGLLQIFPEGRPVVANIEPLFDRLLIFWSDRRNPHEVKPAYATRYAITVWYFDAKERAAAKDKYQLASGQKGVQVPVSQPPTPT

Row | SMILES | IC50 (Prolyl hydroxylase EGLN2) | inhibition [1] | inhibition [2]
1 | O=C(O)CNC(=O)c1ncccc1O | 91.1 µM | inactive | 
2 | O=C(O)c1ccnc(C(=O)O)c1 | 625 µM | inactive | Active
3 | O=C(O)CNC(=O)c1ccccn1 | > 1000 µM | inactive | 
4 | O=C(O)C(S)c1cccc(O)c1 (stereo not drawn) | 500 µM | inactive | 
5 | O=C(O)CNC(=O)c1ccccc1O [SALICYLURIC ACID] | > 1000 µM |  | 
6 | O=C(O)C(=O)c1cccc(O)c1 | > 1000 µM | inactive | 
7 | O=C(NO)c1cccc(O)c1 |  | inactive | 
